Experimental data reported in patent US8541596B2, “Inhibitors” (Probiodrug AG, priority 2010, dated 2013).

Molecular target: hQC (Homo sapiens (Human), UniProt Q16769)
Assay: QC inhibitor assay (fluorometric/spectrophotometric QC activity assay with inhibitor added)
Format: biochemical
Conditions: bound
Protocol: All measurements were performed with a BioAssay Reader HTS-7000Plus for microplates (Perkin Elmer) at 30° C. QC activity was evaluated fluorometrically using H-Gln-βNA. The samples consisted of 0.2 mM fluorogenic substrate, 0.25 U pyroglutamyl aminopeptidase (Unizyme, Høsholm, Denmark) in 0.2 M Tris/HCl, pH 8.0 containing 20 mM EDTA and an appropriately diluted aliquot of QC in a final volume of 250 μl. Excitation/emission wavelengths were 320/410 nm. The assay reactions were initiated by addition of glutaminyl cyclase. QC activity was determined from a standard curve of /3-naphthylamine under assay conditions. One unit is defined as the amount of QC catalyzing the formation of 1 μmol pGlu-βNA from H-Gln-/3NA per minute under the described conditions.
In a second fluorometric assay, QC was activity determined using H-Gln-AMC as substrate. Reactions were carried out at 30° C. utilizing the NOVOStar reader for microplates (BMG labtechnologies). The samples consisted of varying concentrations of the fluorogenic substrate, 0.1 U pyroglutamyl aminopeptidase (Qiagen) in 0.05 M Tris/HCl, pH 8.0 containing 5 mM EDTA and an appropriately diluted aliquot of QC in a final volume of 250 μl. Excitation/emission wavelengths were 380/460 nm. The assay reactions were initiated by addition of glutaminyl cyclase. QC activity was determined from a standard curve of 7-amino-4-methylcoumarin under assay conditions. The kinetic data were evaluated using GraFit software.
This novel assay was used to determine the kinetic parameters for most of the QC substrates. […] Samples consisted of the respective QC substrate, 0.3 mM NADH, 14 mM a-Ketoglutaric acid and 30 U/ml glutamate dehydrogenase in a final volume of 250 μl. Reactions were started by addition of QC and persued by monitoring of the decrease in absorbance at 340 nm for 8-15 min.
The initial velocities were evaluated and the enzymatic activity was determined from a standard curve of ammonia under assay conditions. All samples were measured at 30° C., using either the […]uor Plus or the Sunrise (both from TECAN) reader for microplates. Kinetic data was evaluated using GraFit software.
For inhibitor testing, the sample composition was the same as described above, except for the putative inhibitory compound added. For a rapid test of QC-inhibition, samples contained 4 mM of the respective inhibitor and a substrate concentration at 1 KM. For detailed investigations of the inhibition and determination of K,-values, influence of the inhibitor on the auxiliary enzymes was investigated first. […] The inhibitory constant was evaluated by fitting the set of progress curves to the general equation for competitive inhibition using GraFit software.

hQC, sequence (Q16769 29-361): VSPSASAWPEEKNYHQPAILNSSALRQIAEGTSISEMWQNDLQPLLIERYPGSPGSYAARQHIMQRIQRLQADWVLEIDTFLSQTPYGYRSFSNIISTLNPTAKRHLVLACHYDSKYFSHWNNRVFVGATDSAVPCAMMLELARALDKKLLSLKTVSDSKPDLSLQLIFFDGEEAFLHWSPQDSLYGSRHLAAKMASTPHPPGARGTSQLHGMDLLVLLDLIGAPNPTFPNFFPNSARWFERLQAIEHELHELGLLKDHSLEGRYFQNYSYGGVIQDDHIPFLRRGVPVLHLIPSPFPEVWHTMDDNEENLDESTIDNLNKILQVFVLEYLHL

Compound | IC50
c1ccc(CN(Cc2ccccc2)c2ccc3[nH]cnc3c2)cc1 [Example 10, N,N-Dibenzyl-1H-benzo[d]imidazol-5-amine] | < 10 µM
CSc1ccc(CNc2ccc3[nH]cnc3c2)cc1 [Example 11, N-(4-(Methylthio)benzyl)-1H-benzo[d]imidazol-5-amine] | < 10 µM
N#Cc1ccc(CN(Cc2ccc(C#N)cc2)c2ccc3[nH]cnc3c2)cc1 [Example 19, N,N-Bis(4-cyanobenzyl)-1H-benzo[d]imidazol-5-amine] | < 10 µM
Brc1ccc(CN(Cc2ccc(Br)cc2)c2ccc3[nH]cnc3c2)cc1 [Example 27, N,N-Bis(4-bromobenzyl)-1H-benzo[d]imidazol-5-amine] | < 10 µM
c1ccc2sc(CN(Cc3nc4ccccc4s3)c3ccc4[nH]cnc4c3)nc2c1 [Example 34, N,N-Bis((benzo[d]thiazol-2-yl)methyl)-1H-benzo[d]imidazol-5-amine] | < 10 µM
Cc1ccc2cc(CN(Cc3ccc4nc(C)ccc4c3)c3ccc4[nH]cnc4c3)ccc2n1 [Example 37, N,N-Bis((2-methylquinolin-6-yl)methyl)-1H-benzo[d]imidazol-5-amine] | < 10 µM
Cc1c(F)c(F)c(CNc2ccc3[nH]cnc3c2)c(F)c1F [Example 44, N-(2,3,5,6-Tetrafluoro-4-methylbenzyl)-1H-benzo[d]imidazol-5-amine] | < 10 µM
Clc1ccc2scc(CNc3ccc4[nH]cnc4c3)c2c1 [Example 49, N-((5-Chlorobenzo[b]thiophen-3-yl)methyl)-1H-benzo[d]imidazol-5-amine] | < 10 µM
CSc1ccc(CN(Cc2cc(F)cc(F)c2)c2ccc3[nH]cnc3c2)cc1 [Example 59, N-(3,5-Difluorobenzyl)-N-(4-(methylthio)benzyl)-1H-benzo[d]imidazol-5-amine] | < 10 µM
CSc1ccc(CN(Cc2cc(F)c(F)c(F)c2)c2ccc3[nH]cnc3c2)cc1 [Example 60, N-(3,4,5-Trifluorobenzyl)-N-(4-(methylthio)benzyl)-1H-benzo[d]imidazol-5-amine] | < 10 µM
CSc1ccc(CN(Cc2c(F)c(F)c(C)c(F)c2F)c2ccc3[nH]cnc3c2)cc1 [Example 62, N-(2,3,5,6-Tetrafluoro-4-methylbenzyl)-N-(4-(methylthio)benzyl)-1H-benzo[d]imidazol-5-amine] | < 10 µM
CSc1ccc(CN(Cc2nc3ccccc3s2)c2ccc3[nH]cnc3c2)cc1 [Example 66, N-(4-(Methylthio)benzyl)-N-((benzo[d]thiazol-2-yl)methyl)-1H-benzo[d]imidazol-5-amine] | < 10 µM
CCc1ccc(CN(Cc2ccc(SC)cc2)c2ccc3[nH]cnc3c2)cc1 [Example 69, N-(4-(Methylthio)benzyl)-N-(4-ethylbenzyl)-1H-benzo[d]imidazol-5-amine] | < 10 µM
CCc1ccc(CN(Cc2cc(F)c(F)c(F)c2)c2ccc3[nH]cnc3c2)cc1 [Example 71, N-(3,4,5-Trifluorobenzyl)-N-(4-ethylbenzyl)-1H-benzo[d]imidazol-5-amine] | < 10 µM
CCc1ccc(CN(Cc2ccc(C#N)cc2)c2ccc3[nH]cnc3c2)cc1 [Example 72, N-(4-Cyanobenzyl)-N-(4-ethylbenzyl)-1H-benzo[d]imidazol-5-amine] | < 10 µM
CCc1ccc(CN(Cc2nc3ccccc3s2)c2ccc3[nH]cnc3c2)cc1 [Example 74, N-(4-Ethylbenzyl)-N-((benzo[d]thiazol-2-yl)methyl)-1H-benzo[d]imidazol-5-amine] | < 10 µM
COc1ccc(CN(Cc2ccc3nsnc3c2)c2ccc3[nH]cnc3c2)cc1 [Example 76, N-(4-Methoxybenzyl)-N-((benzo[c][1,2,5]thiadiazol-6-yl)methyl)-1H-benzo[d]imidazol-5-amine] | < 10 µM
Cc1ccc(CN(Cc2ccc(N(C)C)cc2)c2ccc3[nH]cnc3c2)cc1 [Example 78, N-(4-(Dimethylamino)benzyl)-N-(4-methylbenzyl)-1H-benzo[d]imidazol-5-amine] | < 10 µM
CN(C)c1ccc(CN(Cc2ccc3nsnc3c2)c2ccc3[nH]cnc3c2)cc1 [Example 81, N-(4-(Dimethylamino)benzyl)-N-((benzo[c][1,2,5]thiadiazol-5-yl)methyl)-1H-benzo[d]imidazol-5-amine] | < 10 µM
CCCCN(Cc1ccc(SC)cc1)c1ccc2[nH]cnc2c1 [Example 83, N-(4-(Methylthio)benzyl)-N-butyl-1H-benzo[d]imidazol-5-amine] | < 10 µM
COc1ccc(CN(Cc2ccccc2)c2ccc3nc[nH]c3c2)cc1 [Example 86, N-(4-Methoxybenzyl)-N-benzyl-3H-benzo[d]imidazol-5-amine] | < 10 µM
COc1ccc(CN(CCCc2ccccc2)c2ccc3nc[nH]c3c2)cc1 [Example 89, N-(4-Methoxybenzyl)-N-(3-phenylpropyl)-3H-benzo[d]imidazol-5-amine] | < 10 µM
